Data on seven compounds can be found in patent US20260240208A1, “FLAVANONE COMPOUNDS AND THEIR USE AS FLAVOR MODIFIERS” (Firmenich Incorporated, priority 2023, published 2026).

Assay [1] can be described thus: sensory panel: sweetness enhancement of sucrose, rating on a scale of 0 to 10. Type of assay: in vivo, human. As to conditions: mean panel score, scale 0 to 10. On the procedure:
Two control samples were prepared of 6 wt % sucrose and 7.5 wt % sucrose in Low sodium buffer. Two test samples were prepared: one at 6 wt % sucrose plus 4 ppm of Compound 101, and the other at 6 wt % sucrose plus 7 ppm of Compound 103. Panelists were asked to evaluate the four samples and rate the sweetness on a scale of 0 to 10, with a higher rating indicating greater sweetness.

Assay [2] addresses T1, TIR sweet taste receptor (Homo sapiens, UniProt Q7RTX0+Q8TE23).
T1 construct: expressed in transfected cells
T1 sequence (Q8TE23 20-839): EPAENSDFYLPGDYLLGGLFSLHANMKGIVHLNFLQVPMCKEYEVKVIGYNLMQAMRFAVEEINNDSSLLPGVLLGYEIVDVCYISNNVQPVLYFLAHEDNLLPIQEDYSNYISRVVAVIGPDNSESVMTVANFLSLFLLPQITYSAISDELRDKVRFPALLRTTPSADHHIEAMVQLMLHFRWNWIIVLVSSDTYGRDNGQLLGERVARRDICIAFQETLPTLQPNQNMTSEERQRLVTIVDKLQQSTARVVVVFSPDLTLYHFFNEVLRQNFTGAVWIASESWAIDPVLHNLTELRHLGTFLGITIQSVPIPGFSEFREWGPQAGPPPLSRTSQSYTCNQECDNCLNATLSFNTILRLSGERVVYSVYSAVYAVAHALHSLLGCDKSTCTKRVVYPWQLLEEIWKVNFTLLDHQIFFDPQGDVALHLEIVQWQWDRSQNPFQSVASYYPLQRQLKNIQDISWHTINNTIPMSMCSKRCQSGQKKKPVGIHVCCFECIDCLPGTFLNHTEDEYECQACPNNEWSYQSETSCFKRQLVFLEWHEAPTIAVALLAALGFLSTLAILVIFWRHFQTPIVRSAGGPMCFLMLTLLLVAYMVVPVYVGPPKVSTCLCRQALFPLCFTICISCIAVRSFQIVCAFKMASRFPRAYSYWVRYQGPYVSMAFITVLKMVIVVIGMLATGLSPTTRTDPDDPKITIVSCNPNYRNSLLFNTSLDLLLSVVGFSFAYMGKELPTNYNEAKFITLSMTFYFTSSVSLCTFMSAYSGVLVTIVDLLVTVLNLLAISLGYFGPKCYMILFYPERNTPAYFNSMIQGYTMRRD
T1 sequence (Q7RTX0 21-852): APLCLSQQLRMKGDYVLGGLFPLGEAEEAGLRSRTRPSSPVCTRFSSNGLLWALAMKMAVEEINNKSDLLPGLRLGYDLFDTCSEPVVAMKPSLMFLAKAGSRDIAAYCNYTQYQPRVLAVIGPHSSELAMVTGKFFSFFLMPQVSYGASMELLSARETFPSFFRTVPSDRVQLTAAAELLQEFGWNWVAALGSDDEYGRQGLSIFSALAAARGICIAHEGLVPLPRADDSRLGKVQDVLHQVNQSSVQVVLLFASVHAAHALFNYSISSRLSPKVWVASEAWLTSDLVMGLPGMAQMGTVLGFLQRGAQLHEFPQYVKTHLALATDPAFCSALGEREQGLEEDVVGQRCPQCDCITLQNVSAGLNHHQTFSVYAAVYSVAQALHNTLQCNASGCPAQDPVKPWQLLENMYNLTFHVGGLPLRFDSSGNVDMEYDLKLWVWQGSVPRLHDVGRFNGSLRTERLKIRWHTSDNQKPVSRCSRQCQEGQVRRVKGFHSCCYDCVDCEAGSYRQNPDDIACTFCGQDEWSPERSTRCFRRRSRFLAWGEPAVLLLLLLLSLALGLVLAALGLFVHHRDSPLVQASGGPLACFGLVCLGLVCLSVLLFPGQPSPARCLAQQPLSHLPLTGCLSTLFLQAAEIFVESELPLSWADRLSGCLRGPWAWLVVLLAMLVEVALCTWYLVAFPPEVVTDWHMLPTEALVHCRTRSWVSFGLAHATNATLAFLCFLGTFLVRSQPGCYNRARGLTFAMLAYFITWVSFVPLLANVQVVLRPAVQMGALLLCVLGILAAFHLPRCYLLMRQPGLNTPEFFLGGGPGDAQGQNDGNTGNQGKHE
The assay can be described thus: in vitro cell-based assay with cells overexpressing the sweet taste receptor, sweet dose-response. As to conditions: for EC50: cells overexpressing TIR sweet taste receptor, sweet dose-response curves. On the procedure: Each of Compounds 101-106 was synthesized. Thereafter, the compounds were tested in an in vitro cell-based assay having cells that overexpress the TIR sweet taste receptor. The sweet dose-response curves were recorded and the EC50 was determined. Table 2 summarizes calculated EC50 values for certain tested compounds.

A short description of assay [3]: sensory panel paired comparison: sweetness alone versus 1.5 wt % sucrose. Type of assay: in vivo, human. As to the method: The test samples were prepared from Compound 101 (4 ppm aqueous solution) and Compound 103 (7 ppm aqueous solution). Each of the test samples was evaluated by a sensory panel for its sweetness relative to 1.5 wt % sucrose solution. The panelists were asked to choose the sweeter sample in a pair of a compound test sample and a 1.5 wt % solution of sucrose. For Compound 101, the taste sample was selected 14 times as sweeter, while the sucrose control was selected 46 times out of total 60 times. For Compound 103, the taste sample was selected 14 times as sweeter, while the sucrose control was selected 55 times out of total 69 times.

The mark [4] stands for this setting: pair: Compound 101 4 ppm aqueous solution vs 1.5 wt % sucrose solution, total 60 times.
The mark [5] stands for this setting: pair: Compound 103 7 ppm aqueous solution vs 1.5 wt % sucrose solution, total 69 times.

Each structure is given as a SMILES string.

With `COc1ccc(C2Oc3cccc(O)c3C(=O)C2OC(C)=O)cc1O` (stereo not drawn) [Compound 101, 5-hydroxy-2-(3-hydroxy-4-methoxy-phenyl)-4-oxochroman-3-yl acetate], the “Sweetness Score” value in assay [1] (6 wt % sucrose + 4 ppm compound) is given as 9.8. Further, the half-maximal effective concentration (EC50) – broadly, the midpoint of the concentration-response curve – in assay [2] was about 1 µM. In addition, the “times selected as sweeter” value in assay [3] (setting [4]) is 14 times.
Turning to `CCC(=O)OC1C(=O)c2c(O)cccc2OC1c1ccc(OC)c(O)c1` (stereo not drawn) [Compound 102, 5-hydroxy-2-(3-hydroxy-4-methoxy-phenyl)-4-oxochroman-3-yl propionate], the EC50 in assay [2] was about 2 µM. Further, in assay [2] (remark printed beside the EC50), the agonist character result was “partial agonist”.
As for `COc1ccc(C2Oc3cc(O)ccc3C(=O)C2OC(C)=O)cc1O` (stereo not drawn) [Compound 103, 7-hydroxy-2-(3-hydroxy-4-methoxyphenyl)-4-oxochroman-3-yl acetate], the “Sweetness Score” value in assay [1] (6 wt % sucrose + 7 ppm compound) is on record as 8.8. Further, the 50% effective concentration (EC50) in assay [2] is about 8 µM. For the same compound, the “times selected as sweeter” value in assay [3] (setting [5]) was found to be 14 times.
In assay [2], `CCC(=O)OC1C(=O)c2ccc(O)cc2OC1c1ccc(OC)c(O)c1` (stereo not drawn) [Compound 104, 7-hydroxy-2-(3-hydroxy-4-methoxyphenyl)-4-oxochroman-3-yl propionate] displayed an EC50 of about 10 µM.
`CCC(=O)OC1C(=O)c2c(O)cc(O)cc2OC1c1ccc(OC)c(O)c1` (stereo not drawn) [Compound 105, 5,7-dihydroxy-2-(3-hydroxy-4-methoxyphenyl)-4-oxochroman-3-yl propionate] displayed a 50% effective concentration (EC50) in assay [2] of about 5 µM.
Same read-out and setting: the value for `CC(=O)OC1C(=O)c2c(O)cccc2OC1c1ccc(O)cc1` (stereo not drawn) [Compound 106, 5-hydroxy-2-(4-hydroxyphenyl)-4-oxochroman-3-yl acetate] was about 45 µM.
For the compound `OC[C@H]1O[C@@](CO)(O[C@H]2O[C@H](CO)[C@@H](O)[C@H](O)[C@H]2O)[C@@H](O)[C@@H]1O` [sucrose, reference compound], the “Sweetness Score” value in assay [1] (6 wt % sucrose alone, low sodium buffer (control)) is recorded as 6.6; in assay [1] (7.5 wt % sucrose alone, low sodium buffer (control)) it was 8.6. The “times selected as sweeter” value in assay [3] (setting [4]) is given as 46 times; in assay [3] (setting [5]), 55 times.
